The results in this text go back to ChEMBL document CHEMBL3621145, “Synthesis of imidazothiadiazolebenzimidazole conjugates as mitochondrial apoptosis inducers” (Medchemcomm, 2014).

Each structure is given as a SMILES string.

Holding throughout (assay type): functional, cell-based
The test system of one assay is A549. As to the kind of experiment: Anticancer activity against human A549 cells by MTT assay. For orientation: Tetrazolium dyes change colour on reduction, which living cells bring about.
The next assay relates to ME-180. As to the kind of experiment: Anticancer activity against human ME180 cells by MTT assay.
In a further assay the test system is DU-145. As to the kind of experiment: Anticancer activity against human DU145 cells by MTT assay.
Another assay deals with A-375. As to the kind of experiment: Anticancer activity against human A375 cells by MTT assay.

Usually IC50 stands for the concentration needed to halve the response being measured. A low value points to greater potency in that assay. As to `Cc1nn2c(-c3nc4cc(C)c(C)cc4[nH]3)c(-c3ccccc3)nc2s1`, the IC50 was > 30 µM in the assay with A549, 19.9 µM in the assay with ME-180, 19.8 µM in the assay on DU-145 and 22.5 µM in the assay on A-375.

In the case of `Cc1nn2c(-c3nc4ccccc4[nH]3)c(-c3ccccc3)nc2s1`, the IC50 in the assay on A549 was 16.6 µM; in the assay with ME-180 it was 16.9 µM; in the assay on DU-145, > 30 µM; in the assay with A-375 it was 19.9 µM.

In the case of `Cc1nn2c(-c3nc4cc(O)ccc4[nH]3)c(-c3ccccc3)nc2s1`, the IC50 in the assay on A549 is 19.4 µM; in the assay on ME-180 it was 16.4 µM; in the assay with DU-145, 20.6 µM; in the assay with A-375, 19.1 µM.

As for `Cc1nn2c(-c3nc4cc(Cl)c(Cl)cc4[nH]3)c(-c3ccc(F)cc3)nc2s1`, the IC50 is > 30 µM in the assay with A549, 10 µM in the assay with ME-180, > 30 µM with DU-145 and 14.2 µM with A-375.

For `COc1ccc(-c2nc3sc(C)nn3c2-c2nc3cc(Cl)c(F)cc3[nH]2)cc1`, the IC50 in the assay on A549 is 17.9 µM; with ME-180, 4.6 µM; with DU-145, > 30 µM; with A-375, 6.8 µM.

Regarding `Cc1nn2c(-c3nc4cc(C(F)(F)F)ccc4[nH]3)c(-c3ccc(F)cc3)nc2s1`, the IC50 in the assay with A549 stood at 12.7 µM; in the assay on ME-180, 5.8 µM; in the assay with DU-145, 15.8 µM; with A-375, 7.3 µM.

Take `Cc1nn2c(-c3nc4c(C)c(C)ccc4[nH]3)c(-c3ccccc3)nc2s1`: the IC50 in the assay with A549 was 18.4 µM; with ME-180 it was 15.8 µM; in the assay with DU-145, > 30 µM; with A-375 it was 22.9 µM.

Consider `Cc1ccc(-c2nc3sc(C)nn3c2-c2nc3cc(Cl)ccc3[nH]2)cc1`, for which the IC50 is 4.4 µM with A549, 3.6 µM with ME-180, 7.3 µM with DU-145 and 5.01 µM in the assay on A-375.

`Cc1nn2c(-c3nc4cc(Cl)ccc4[nH]3)c(-c3ccc(F)cc3)nc2s1`: the IC50 was determined as 10.2 µM in the assay on A549, 1.9 µM with ME-180, 14.4 µM in the assay on DU-145 and 4.8 µM in the assay with A-375.

With `Cc1ccc2[nH]c(-c3c(-c4ccc(F)cc4)nc4sc(C)nn34)nc2c1`, the IC50 stood at 11.7 µM with A549, 6.6 µM in the assay on ME-180, 19.9 µM with DU-145 and 7.7 µM in the assay with A-375.

In the case of `Cc1ccc(-c2nc3sc(C)nn3c2-c2nc3cc(C)ccc3[nH]2)cc1`, the IC50 with A549 came out at 9.8 µM; with ME-180 it was 4.5 µM; with DU-145, 10.7 µM; in the assay with A-375, 6.1 µM.

Turning to `Cc1ccc(-c2nc3sc(C)nn3c2-c2nc3c(C)c(C)ccc3[nH]2)cc1`, the IC50 was 10.3 µM in the assay with A549, 9.7 µM in the assay with ME-180, 12.5 µM in the assay with DU-145 and 11.4 µM in the assay with A-375.

As to `Cc1nn2c(-c3nc4cc(Cl)ccc4[nH]3)c(-c3ccccc3)nc2s1`, the IC50 in the assay with A549 was 16.9 µM; with ME-180, 5.4 µM; with DU-145 it was 25.1 µM; in the assay with A-375, 7.7 µM.

On to `COc1ccc(-c2nc3sc(C)nn3c2-c2nc3cc(C)ccc3[nH]2)cc1`, for which the IC50 in the assay on A549 was determined as 18.4 µM; with ME-180, 8.7 µM; in the assay on DU-145, 25.1 µM; in the assay with A-375, 10.9 µM.

For the molecule `COc1ccc(-c2nc3sc(C)nn3c2-c2nc3c(C)c(C)ccc3[nH]2)cc1`, the IC50 in the assay with A549 came to 16.2 µM; in the assay with ME-180 it was 3.7 µM; in the assay on DU-145, 14.2 µM; with A-375, 5.8 µM.

Regarding `Cc1nn2c(-c3nc4cc(Cl)c(F)cc4[nH]3)c(-c3ccc(F)cc3)nc2s1`, the IC50 was > 30 µM in the assay on A549, 13.9 µM in the assay with ME-180, > 30 µM with DU-145 and 17.7 µM in the assay on A-375.

As to `Cc1nn2c(-c3nc4cc(Cl)c(F)cc4[nH]3)c(-c3ccccc3)nc2s1`, the IC50 is 16.4 µM in the assay on A549, 16.9 µM in the assay with ME-180, > 30 µM in the assay on DU-145 and 20.8 µM with A-375.

With `COC(=O)Nc1nc2cc(C(=O)c3cccs3)ccc2[nH]1` [NOCODAZOLE], the IC50 in the assay on A549 came out at 2.5 µM; in the assay with ME-180, 1.7 µM; in the assay with DU-145, 2.1 µM; in the assay with A-375, 0.2 µM.
